Test results from the supplement of paper PMC13380429.

How the values were obtained:
[1] = tested on: A549-ACE2 infected with SARS-CoV-2; test: cell count relative to DMSO; higher = less toxic; details: 24 h
Caco-2 [2] = test: cell viability relative to DMSO; higher = less toxic; details: 72 h
Calu-3 [3] = test: as above; details: 72 h
HepG2 [4] = test: as above; details: 72 h
U2OS [5] = test: as above; details: 72 h
Vero E6 [6] = test: as above; details: 72 h
[7] = tested on: A549-ACE2 infected with SARS-CoV-2; test: SARS-CoV-2 infection rate relative to DMSO; higher = more infection; details: 24 h
A549-ACE2 [8] = test: phospholipidosis EC50; higher = less potent phospholipidosis inducer
A549-ACE2 [9] = test: drug-induced phospholipidosis relative to tamoxifen; higher = more phospholipidosis
[10] = tested on: A549-ACE2 infected with SARS-CoV-2; test: morphology score (similarity to uninfected cells); higher = more like uninfected cells; details: 24 h
Caco-2 [11] = test: relative viability EC50 (midpoint between 100% and the lowest measured viability); higher = less toxic; details: 72 h
Calu-3 [12] = test: as above; details: 72 h
U2OS [13] = test: as above; details: 72 h
Vero E6 [14] = test: as above; details: 72 h
Caco-2 [15] = test: drug sensitivity score (DSS) for viability; higher = more toxic; extreme values may be limits of the assay; details: 72 h
Calu-3 [16] = test: as above; details: 72 h
HepG2 [17] = test: as above; details: 72 h
U2OS [18] = test: as above; details: 72 h
Vero E6 [19] = test: as above; details: 72 h
HepG2 [20] = test: relative viability EC50 (midpoint between 100% and the lowest measured viability); higher = less toxic; details: 72 h

CN1Cc2ccccc2[C@@H]2c3cccc4[nH]cc(c34)C[C@H]21 [CY208-243]
Details | SARS-CoV-2 infection rate [%] | cell count [%] | cell viability [%] | morphology score | phospholipidosis EC50 [µM]
A549-ACE2 [8], 24 h | – | – | – | – | 8.69
A549-ACE2 [8], 48 h | – | – | – | – | 27.8
Caco-2 [2], 1 nM | – | – | 99.1 | – | –
Caco-2 [2], 10 nM | – | – | 100 | – | –
Caco-2 [2], 100 nM | – | – | 94.8 | – | –
Caco-2 [2], 1000 nM | – | – | 110 | – | –
Caco-2 [2], 10000 nM | – | – | 82.8 | – | –
Calu-3 [3], 1 nM | – | – | 92.8 | – | –
Calu-3 [3], 10 nM | – | – | 99.8 | – | –
Calu-3 [3], 100 nM | – | – | 93.8 | – | –
Calu-3 [3], 1000 nM | – | – | 96.5 | – | –
Calu-3 [3], 10000 nM | – | – | 90.4 | – | –
HepG2 [4], 1 nM | – | – | 102 | – | –
HepG2 [4], 10 nM | – | – | 96.9 | – | –
HepG2 [4], 100 nM | – | – | 92.1 | – | –
HepG2 [4], 1000 nM | – | – | 99.5 | – | –
HepG2 [4], 10000 nM | – | – | 59.7 | – | –
U2OS [5], 1 nM | – | – | 95.7 | – | –
U2OS [5], 10 nM | – | – | 99.4 | – | –
U2OS [5], 100 nM | – | – | 97.3 | – | –
U2OS [5], 1000 nM | – | – | 100 | – | –
U2OS [5], 10000 nM | – | – | 83.3 | – | –
Vero E6 [6], 1 nM | – | – | 99 | – | –
Vero E6 [6], 10 nM | – | – | 92.7 | – | –
Vero E6 [6], 100 nM | – | – | 97 | – | –
Vero E6 [6], 1000 nM | – | – | 99.2 | – | –
Vero E6 [6], 10000 nM | – | – | 83.8 | – | –
[1], 0.3 µM | – | 97 | – | – | –
[1], 3 µM | – | 77 | – | – | –
[1], 10 µM | – | 82 | – | – | –
[1], 30 µM | – | 80 | – | – | –
[7], 0.3 µM | 100 | – | – | – | –
[7], 3 µM | 99 | – | – | – | –
[7], 10 µM | 87 | – | – | – | –
[7], 30 µM | 52 | – | – | – | –
[10], 0.3 µM | – | – | – | -0.03 | –
[10], 3 µM | – | – | – | 0.26 | –
[10], 10 µM | – | – | – | 0.44 | –
[10], 30 µM | – | – | – | 0.69 | –

drug-induced phospholipidosis [%], A549-ACE2 [9]
Details | 0.3 µM | 0.833333 µM | 3.33333 µM | 6.66667 µM | 10 µM | 30 µM
24 h | 2.51 | 3.29 | 14.1 | 30.7 | 58.4 | 88.2
48 h | 1.19 | 3.01 | 17.4 | 28.4 | 77.3 | –
72 h | 4.71 | 3.9 | – | – | – | –

Details | drug sensitivity score | relative viability EC50 [µM]
Caco-2 [11] | – | > 10
Caco-2 [15] | 0.2 | –
Calu-3 [12] | – | > 10
Calu-3 [16] | 0 | –
HepG2 [17] | 2.1 | –
U2OS [13] | – | > 10
U2OS [18] | 0.3 | –
Vero E6 [14] | – | > 10
Vero E6 [19] | 0.4 | –

Fc1ccc(-n2cc(CCCCN3CCC4(CC3)OCc3ccccc34)c3ccccc32)cc1 [siramesine]
Details | SARS-CoV-2 infection rate [%] | cell count [%] | cell viability [%] | morphology score | phospholipidosis EC50 [µM]
A549-ACE2 [8], 72 h | – | – | – | – | 4.1
Caco-2 [2], 1 nM | – | – | 97.3 | – | –
Caco-2 [2], 10 nM | – | – | 104 | – | –
Caco-2 [2], 100 nM | – | – | 85.1 | – | –
Caco-2 [2], 1000 nM | – | – | 101 | – | –
Caco-2 [2], 10000 nM | – | – | 37.5 | – | –
Calu-3 [3], 1 nM | – | – | 88.8 | – | –
Calu-3 [3], 10 nM | – | – | 94.3 | – | –
Calu-3 [3], 100 nM | – | – | 88.2 | – | –
Calu-3 [3], 1000 nM | – | – | 104 | – | –
Calu-3 [3], 10000 nM | – | – | 17.8 | – | –
HepG2 [4], 1 nM | – | – | 97.7 | – | –
HepG2 [4], 10 nM | – | – | 100 | – | –
HepG2 [4], 100 nM | – | – | 93.5 | – | –
HepG2 [4], 1000 nM | – | – | 98.6 | – | –
HepG2 [4], 10000 nM | – | – | 24 | – | –
U2OS [5], 1 nM | – | – | 100 | – | –
U2OS [5], 10 nM | – | – | 97.7 | – | –
U2OS [5], 100 nM | – | – | 95.6 | – | –
U2OS [5], 1000 nM | – | – | 103 | – | –
U2OS [5], 10000 nM | – | – | 53.2 | – | –
Vero E6 [6], 1 nM | – | – | 98.9 | – | –
Vero E6 [6], 10 nM | – | – | 93.5 | – | –
Vero E6 [6], 100 nM | – | – | 99.2 | – | –
Vero E6 [6], 1000 nM | – | – | 89 | – | –
Vero E6 [6], 10000 nM | – | – | 73.5 | – | –
[1], 0.1 µM | – | 111 | – | – | –
[1], 0.3 µM | – | 114 | – | – | –
[1], 1 µM | – | 117 | – | – | –
[1], 3 µM | – | 111 | – | – | –
[7], 0.1 µM | 93 | – | – | – | –
[7], 0.3 µM | 50 | – | – | – | –
[7], 1 µM | 60 | – | – | – | –
[7], 3 µM | 26 | – | – | – | –
[10], 0.1 µM | – | – | – | 0.38 | –
[10], 0.3 µM | – | – | – | 0.75 | –
[10], 1 µM | – | – | – | 0.69 | –
[10], 3 µM | – | – | – | 0.84 | –

drug-induced phospholipidosis [%], A549-ACE2 [9]
Details | 0.3 µM | 0.833333 µM | 3.33333 µM | 6.66667 µM | 10 µM
24 h | 2.74 | 5.08 | 32.4 | 33.5 | 24.5
48 h | 4.1 | 0.61 | 22.6 | 47.9 | –
72 h | 0.56 | 0.623 | 23.8 | 61.4 | –

Details | drug sensitivity score | relative viability EC50 [µM]
Caco-2 [11] | – | 3.26
Caco-2 [15] | 3.3 | –
Calu-3 [12] | – | 3.44
Calu-3 [16] | 4.2 | –
HepG2 [17] | 4.4 | –
HepG2 [20] | – | 3.03
U2OS [18] | 2.2 | –
Vero E6 [19] | 2.2 | –
